For 7 compounds, mutagenic call results are on record in PubChem BioAssay AID1259407 (Chemical Carcinogenesis Research Information System (CCRIS), 2018).

The test system of this series is CCRIS mutagenicity, Ames/micronucleus/aberration tests. As to the kind of experiment: CCRIS mutagenicity studies.
[1] abbreviates: Test System: AMES SALMONELLA TYPHIMURIUM, Strain/Indicator: TA100, Metabolic Activation: NONE, Method: STANDARD PLATE.
The mark [2] stands for this setting: Test System: AMES SALMONELLA TYPHIMURIUM, Strain/Indicator: TA98, Metabolic Activation: NONE, Method: STANDARD PLATE.
Setting [3] is: Test System: AMES SALMONELLA TYPHIMURIUM, Strain/Indicator: TA98, Metabolic Activation: RAT, LIVER, S-9, AROCLOR 1254, Method: STANDARD PLATE.
Setting [4] is: Test System: AMES SALMONELLA TYPHIMURIUM, Strain/Indicator: TA100, Metabolic Activation: RAT, LIVER, S-9, AROCLOR 1254, Method: STANDARD PLATE.
Setting [5] is: Test System: AMES SALMONELLA TYPHIMURIUM, Strain/Indicator: TA98, Metabolic Activation: NONE, Method: PREINCUBATION
Where [6] appears, read: Test System: AMES SALMONELLA TYPHIMURIUM, Strain/Indicator: TA100, Metabolic Activation: NONE, Method: PREINCUBATION

The source made the active and inactive calls. No rule for the calls is given here.

Regarding `Oc1ccc2ncccc2c1`, the mutagenic call was “inactive; negative” under setting [1] and “inactive; negative” (Test System: AMES SALMONELLA TYPHIMURIUM, Strain/Indicator: TA100, Metabolic Activation: RAT, LIVER, S-9, AROCLOR 1254 (10% OR 20%), Method: STANDARD PLATE).
On to `CC(=O)N(O)c1ccc(Sc2ccccc2)cc1`, for which the mutagenic call runs as follows: under setting [2], “active; positive”; under setting [3], “active; positive”.
Regarding `COc1cccc2c1C(=O)c1c(O)c3c(c(O)c1C2=O)C[C@@](O)(C(=O)CO)C[C@@H]3O[C@H]1C[C@H](N)[C@@H](O)[C@H](C)O1`, the mutagenic call reads like this: (Test System: AMES SALMONELLA TYPHIMURIUM, Strain/Indicator: TA97, Metabolic Activation: NONE, Method: STANDARD PLATE) “inactive; negative”; under setting [2], “active; positive”; under setting [1], “inactive; negative”; (Test System: AMES SALMONELLA TYPHIMURIUM, Strain/Indicator: TA102, Metabolic Activation: NONE, Method: STANDARD PLATE) “active; positive”; (Test System: AMES SALMONELLA TYPHIMURIUM, Strain/Indicator: TA104, Metabolic Activation: NONE, Method: STANDARD PLATE) “inactive; negative”; (Test System: AMES SALMONELLA TYPHIMURIUM, Strain/Indicator: TA2637, Metabolic Activation: NONE, Method: STANDARD PLATE) “active; positive”.
For the compound `CCN(CC)C(=S)S[C@@H]1O[C@H](CO)[C@@H](O)[C@H](O)[C@H]1O`, the mutagenic call reads like this: under setting [2], “inactive; negative”; under setting [3], “inactive; negative”; under setting [1], “inactive; negative”; under setting [4], “inactive; negative”.
`CCc1ccc([N+](=O)[O-])cc1`: the mutagenic call reads like this: under setting [5], “inactive; negative”; (Test System: AMES SALMONELLA TYPHIMURIUM, Strain/Indicator: TA98, Metabolic Activation: RAT, LIVER, S-9, KANECHLOR 500, Method: PREINCUBATION) “inactive; negative”; under setting [6], “inactive; negative”; (Test System: AMES SALMONELLA TYPHIMURIUM, Strain/Indicator: TA100, Metabolic Activation: RAT, LIVER, S-9, KANECHLOR 500, Method: PREINCUBATION) “inactive; negative”.
Consider `OCCBr`, for which the mutagenic call reads like this: (Test System: AMES SALMONELLA TYPHIMURIUM, Strain/Indicator: TA97, Metabolic Activation: HAMSTER, LIVER, S-9, AROCLOR 1254 (10%), Method: PREINCUBATION) “inactive; negative”; (Test System: AMES SALMONELLA TYPHIMURIUM, Strain/Indicator: TA97, Metabolic Activation: NONE, Method: PREINCUBATION) “inactive; negative”; (Test System: AMES SALMONELLA TYPHIMURIUM, Strain/Indicator: TA97, Metabolic Activation: RAT, LIVER, S-9, AROCLOR 1254 (10%), Method: PREINCUBATION) “inactive; negative”; (Test System: AMES SALMONELLA TYPHIMURIUM, Strain/Indicator: TA98, Metabolic Activation: HAMSTER, LIVER, S-9, AROCLOR 1254 (10%), Method: PREINCUBATION) “inactive; negative”; under setting [5], “inactive; negative”; under setting [2], “inactive; negative”. Moreover, the mutagenic call is, setting by setting: (Test System: AMES SALMONELLA TYPHIMURIUM, Strain/Indicator: TA98, Metabolic Activation: RAT, LIVER, S-9, AROCLOR 1254 (10%), Method: PREINCUBATION) “inactive; negative”; under setting [3], “inactive; negative”; (Test System: AMES SALMONELLA TYPHIMURIUM, Strain/Indicator: TA100, Metabolic Activation: HAMSTER, LIVER, S-9, AROCLOR 1254 (10%), Method: PREINCUBATION) “active; positive”; under setting [6], “active; positive”; under setting [1], “active; positive”; (Test System: AMES SALMONELLA TYPHIMURIUM, Strain/Indicator: TA100, Metabolic Activation: RAT, LIVER, S-9, AROCLOR 1254 (10%), Method: PREINCUBATION) “active; positive”. For the same compound, the mutagenic call by setting is: under setting [4], “active; positive”; (Test System: AMES SALMONELLA TYPHIMURIUM, Strain/Indicator: TA1535, Metabolic Activation: HAMSTER, LIVER, S-9, AROCLOR 1254 (10%), Method: PREINCUBATION) “active; positive”; (Test System: AMES SALMONELLA TYPHIMURIUM, Strain/Indicator: TA1535, Metabolic Activation: NONE, Method: PREINCUBATION) “active; positive”; (Test System: AMES SALMONELLA TYPHIMURIUM, Strain/Indicator: TA1535, Metabolic Activation: RAT, LIVER, S-9, AROCLOR 1254 (10%), Method: PREINCUBATION) “active; positive”.
Regarding `Cc1cccc2c([N+](=O)[O-])cc[n+]([O-])c12`, the mutagenic call (Test System: UDS RODENT PRIMARY CELLS, Strain/Indicator: THY INCORP (NON-S-PHASE), Metabolic Activation: NONE, Method: AUTORADIOGRAPHY) was “active; positive”.
